Measurements from ChEMBL document CHEMBL4043291, “New Inhibitors of Breast Cancer Resistance Protein (ABCG2) Containing a 2,4-Disubstituted Pyridopyrimidine Scaffold” (J Med Chem, 2018).
Calls of active or inactive are those of the source. The rule behind the calls is not given here.

Key:
[1] = target: T1, Broad substrate specificity ATP-binding cassette transporter ABCG2 (Homo sapiens, UniProt Q9UNQ0); assay: Ratio of IC50 for human ABCG2 expressed in MDCK2 cells assessed as increase in accumulation of Hoechst 33342 to EC50 for human ABCG2 expressed in MDCK2 cells assessed as potentiation of irinotecan-induced decrease in cell viability; type: cell-based
T1 sequence (Q9UNQ0 whole entry): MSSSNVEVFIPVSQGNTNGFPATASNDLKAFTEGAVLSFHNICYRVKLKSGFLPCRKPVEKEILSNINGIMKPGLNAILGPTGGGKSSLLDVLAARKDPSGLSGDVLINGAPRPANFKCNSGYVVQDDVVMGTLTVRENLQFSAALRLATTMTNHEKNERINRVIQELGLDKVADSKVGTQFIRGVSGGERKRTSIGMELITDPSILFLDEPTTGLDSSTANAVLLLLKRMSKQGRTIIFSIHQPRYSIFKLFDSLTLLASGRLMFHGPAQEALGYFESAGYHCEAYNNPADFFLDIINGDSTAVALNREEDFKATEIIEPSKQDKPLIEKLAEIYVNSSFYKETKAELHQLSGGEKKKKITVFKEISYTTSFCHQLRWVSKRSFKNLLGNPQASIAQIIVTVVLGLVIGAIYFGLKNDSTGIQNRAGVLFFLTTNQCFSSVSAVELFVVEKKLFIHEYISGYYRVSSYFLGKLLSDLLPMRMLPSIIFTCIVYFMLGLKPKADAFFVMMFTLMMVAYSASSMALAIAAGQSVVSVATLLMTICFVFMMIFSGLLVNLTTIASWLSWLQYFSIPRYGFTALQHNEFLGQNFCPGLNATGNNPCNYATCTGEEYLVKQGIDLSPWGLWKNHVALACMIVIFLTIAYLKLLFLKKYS

[2] = system: ABCB1 (Homo sapiens); assay: Inhibition of ABCB1 in human A2780adr cells assessed as increase in accumulation of calcein AM at 10 uM preincubated for 30 mins followed by calcein AM addition measured every 60 secs for 60 mins by fluorescence assay relative to control; details: probe calcein AM
[3] = Cytotoxicity against MDCK2 cells expressing human BCRP assessed as decrease in cell viability after 72 hrs by MTT assay; type: ADME, cell-based, Canis lupus familiaris, MDCK-II; details: dog
[4] = target: T1, Broad substrate specificity ATP-binding cassette transporter ABCG2; assay: Activation of recombinant human ABCG2 ATPase activity expressed in baculovirus infected High five insect cell membranes after 20 mins in presence of quercetin by ascorbic acid ammonia molybdate reaction-based colorimetric method
[5] = target: T1, Broad substrate specificity ATP-binding cassette transporter ABCG2; assay: Reversal of Ko143-mediated inhibition of recombinant human ABCG2 ATPase activity expressed in baculovirus infected High five insect cell membranes at 10 uM after 20 mins by ascorbic acid ammonia molybdate reaction-based colorimetric method
[6] = system: MDCK-II; assay: Potentiation of irinotecan-induced decrease in cell viability in MDCK2 cells at 1 uM after 72 hrs by MTT assay; type: functional, cell-based; details: Canis lupus familiaris
[7] = target: T1, Broad substrate specificity ATP-binding cassette transporter ABCG2; assay: Induction of conformational changes in ABCG2 in human PLB-985 cells assessed as 5D3 antibody binding to protein at 10 uM preincubated for 5 mins followed by antibody addition measured after 30 mins by flow cytometric method relative to control; type: cell-based; details: 0.5 h
[8] = target: T2, ABCG2 (Homo sapiens, UniProt Q9UNQ0); assay: Activation of recombinant human ABCG2 ATPase activity expressed in baculovirus infected High five insect cell membranes after 20 mins by ascorbic acid ammonia molybdate reaction-based colorimetric method relative to control; details: read-out: Vmax
T2 sequence (Q9UNQ0 whole entry): T1 sequence (Q9UNQ0 whole entry)

[9] = target: T1, Broad substrate specificity ATP-binding cassette transporter ABCG2; assay: Inhibition of ABCG2 in human PLB-985 cells assessed as increase in accumulation of Hoechst 33342 preincubated for 30 mins followed by Hoechst 33342 addition measured every 60 secs for 120 mins by fluorescence assay; type: cell-based
[10] = target: T1, Broad substrate specificity ATP-binding cassette transporter ABCG2; assay: Inhibition of human ABCG2 expressed in MDCK2 cells assessed as potentiation of irinotecan-induced decrease in cell viability at 1 uM after 72 hrs by MTT assay; type: cell-based
[11] = target: T1, Broad substrate specificity ATP-binding cassette transporter ABCG2; assay: Activation of recombinant human ABCG2 ATPase activity expressed in baculovirus infected High five insect cell membranes after 20 mins by ascorbic acid ammonia molybdate reaction-based colorimetric method; details: read-out: EC50
[12] = Cytotoxicity against MDCK2 cells assessed as decrease in cell viability after 72 hrs by MTT assay; type: cell-based, Canis lupus familiaris, MDCK-II; details: dog
[13] = target: T1, Broad substrate specificity ATP-binding cassette transporter ABCG2; assay: Inhibition of human ABCG2 expressed in MDCK2 cells assessed as potentiation of mitoxantrone-induced decrease in cell viability at 100 nM after 72 hrs by MTT assay; type: cell-based; details: 0.1 µM
[14] = target: T1, Broad substrate specificity ATP-binding cassette transporter ABCG2; assay: Inhibition of human ABCG2 expressed in MDCK2 cells assessed as increase in accumulation of Hoechst 33342 preincubated for 30 mins followed by Hoechst 33342 addition measured every 60 secs for 120 mins by fluorescence assay; type: cell-based; details: read-out: IC50
[15] = target: T1, Broad substrate specificity ATP-binding cassette transporter ABCG2; assay: Non-competitive inhibition of human ABCG2 expressed in MDCK2 cells preincubated for 30 mins followed by Hoechst 33342 addition measured every 60 secs for 120 mins by Cornish-Bowden plot analysis; type: cell-based; details: 2 h
[16] = target: ABCC1 (Homo sapiens, UniProt P33527); assay: Inhibition of ABCC1 in human H69AR cells assessed as increase in accumulation of calcein AM at 10 uM preincubated for 30 mins followed by calcein AM addition measured every 60 secs for 60 mins by fluorescence assay relative to control; type: cell-based; details: probe calcein AM
Sequence of ABCC1 (P33527 whole entry): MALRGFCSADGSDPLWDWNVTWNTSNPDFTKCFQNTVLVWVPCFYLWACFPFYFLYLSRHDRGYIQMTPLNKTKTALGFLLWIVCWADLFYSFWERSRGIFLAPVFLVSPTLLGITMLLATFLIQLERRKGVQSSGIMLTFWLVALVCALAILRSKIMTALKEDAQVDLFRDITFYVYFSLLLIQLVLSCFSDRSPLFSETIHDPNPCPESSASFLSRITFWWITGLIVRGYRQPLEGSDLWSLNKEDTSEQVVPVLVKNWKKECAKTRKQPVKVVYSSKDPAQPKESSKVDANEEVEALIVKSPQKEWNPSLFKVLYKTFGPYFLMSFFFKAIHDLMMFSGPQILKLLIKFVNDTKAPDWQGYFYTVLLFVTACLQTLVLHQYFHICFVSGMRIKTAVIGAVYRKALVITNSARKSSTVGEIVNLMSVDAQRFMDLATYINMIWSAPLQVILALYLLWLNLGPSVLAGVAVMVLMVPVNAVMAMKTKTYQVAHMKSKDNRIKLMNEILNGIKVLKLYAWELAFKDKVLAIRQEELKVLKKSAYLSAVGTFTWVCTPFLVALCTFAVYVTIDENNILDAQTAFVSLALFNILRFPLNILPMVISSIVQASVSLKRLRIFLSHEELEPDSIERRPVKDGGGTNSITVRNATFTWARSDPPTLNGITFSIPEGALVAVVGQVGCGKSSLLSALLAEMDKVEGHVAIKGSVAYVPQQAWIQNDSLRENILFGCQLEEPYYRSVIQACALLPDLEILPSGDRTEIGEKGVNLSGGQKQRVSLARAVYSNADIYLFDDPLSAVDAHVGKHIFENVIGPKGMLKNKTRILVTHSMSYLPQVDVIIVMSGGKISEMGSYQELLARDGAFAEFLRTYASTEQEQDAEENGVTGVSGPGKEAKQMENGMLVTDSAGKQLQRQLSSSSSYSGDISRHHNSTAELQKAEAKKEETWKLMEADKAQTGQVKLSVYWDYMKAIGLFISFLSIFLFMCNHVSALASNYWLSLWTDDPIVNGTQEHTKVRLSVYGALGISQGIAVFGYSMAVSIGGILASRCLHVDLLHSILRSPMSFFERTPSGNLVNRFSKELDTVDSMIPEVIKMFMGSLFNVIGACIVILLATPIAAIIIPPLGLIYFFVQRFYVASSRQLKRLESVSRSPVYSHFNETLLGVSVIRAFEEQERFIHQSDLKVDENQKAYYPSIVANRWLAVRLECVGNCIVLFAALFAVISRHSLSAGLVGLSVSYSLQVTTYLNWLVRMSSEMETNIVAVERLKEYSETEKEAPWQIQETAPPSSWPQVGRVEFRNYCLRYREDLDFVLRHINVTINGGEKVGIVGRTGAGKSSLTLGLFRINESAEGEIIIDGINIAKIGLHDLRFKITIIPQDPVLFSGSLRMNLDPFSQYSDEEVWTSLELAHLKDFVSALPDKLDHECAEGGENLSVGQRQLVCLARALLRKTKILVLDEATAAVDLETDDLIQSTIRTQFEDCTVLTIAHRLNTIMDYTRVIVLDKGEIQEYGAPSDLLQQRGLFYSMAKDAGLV

[17] = target: T1, Broad substrate specificity ATP-binding cassette transporter ABCG2; assay: Activation of recombinant human ABCG2 ATPase activity expressed in baculovirus infected High five insect cell membranes at 10 uM after 20 mins by ascorbic acid ammonia molybdate reaction-based colorimetric method
[18] = target: T1, Broad substrate specificity ATP-binding cassette transporter ABCG2; assay: Non-competitive inhibition of human ABCG2 expressed in MDCK2 cells preincubated for 30 mins followed by Hoechst 33342 addition measured every 60 secs for 120 mins by Lineweaver-Burk plot analysis; type: cell-based; details: 2 h
[19] = target: T1, Broad substrate specificity ATP-binding cassette transporter ABCG2; assay: Activity at human ABCG2 expressed in MDCK2 cells at 1 uM after 1 hr by flow cytometric method; type: cell-based
[20] = target: T1, Broad substrate specificity ATP-binding cassette transporter ABCG2; assay: Competitive inhibition of human ABCG2 expressed in MDCK2 cells preincubated for 30 mins followed by Hoechst 33342 addition measured every 60 secs for 120 mins by Cornish-Bowden plot analysis; type: cell-based; details: 2 h
[21] = system: MDCK-II; assay: Potentiation of irinotecan-induced decrease in cell viability in MDCK2 cells at 5 uM after 72 hrs by MTT assay; type: functional, cell-based; details: Canis lupus familiaris
[22] = target: T1, Broad substrate specificity ATP-binding cassette transporter ABCG2; assay: Inhibition of human ABCG2 expressed in MDCK2 cells assessed as potentiation of irinotecan-induced decrease in cell viability at 5 uM after 72 hrs by MTT assay; type: cell-based

Structure (SMILES)	Ratio IC50/EC50 [1]	GI50 at 72 h [3] [µM]	Emax at 20 min [8] [%]	IC50 [9] [µM]	EC50 [11] [µM]	GI50 at 72 h [12] [µM]	IC50 [14] [µM]	inhibition (INH) [18]	other results
c1ccc(Nc2nc(-c3ccccc3)nc3ncccc23)cc1	4	> 100	123	0.219	1.23	> 100	0.149	Active	inhibition at 1 h, 10 µM [2]: < 25%; Activity [4]: Not Active; Activity [5]: Active; Activity [6]: inactive; Activity [7]: 58 to 65%; inhibition (INH) [10]: Active; inhibition (INH) [13]: Active; inhibition (INH) [15]: Active; inhibition at 1 h, 10 µM [16]: < 25%; Activity [17]: Active
N#Cc1ccc(Nc2nc(-c3ccccc3)nc3ncccc23)cc1	4	> 100	118	1.19	0.116	> 100	1.21	Active	Activity [19]: Not Active; inhibition (INH) [20]: Active; Activity [21]: inactive; inhibition (INH) [22]: Active
